According to patent US7507816B2, “Pharmaceutical preparations comprising substituted beta-aminoalcohols” (Gruenenthal GmbH, priority 2001, dated 2009):

Target: T1, NA transporter (Rattus norvegicus, UniProt Q9WTR4)
T1 construct: synaptosomes were freshly isolated from rat brain regions; from tissue; host or cells: rat hypothalamus synaptosomes (P2 fraction)
Experiment: Noradrenaline reuptake inhibition (NA uptake inhibition) in rat brain synaptosomes
Format: biochemical
Conditions: test concentration of 10^−5 M; synaptosomes (P2 fraction) from the hypothalamus of male rat brains
Experimental: Investigations Relating to Noradrenaline Reuptake Inhibition (NA Uptake Inhibition)
The compounds according to the invention are NA uptake inhibitors. In order to be able to carry out these in vitro studies, synaptosomes were freshly isolated from rat brain regions. A so-called “P2” fraction was used, which was prepared according to the instructions given by Gray and Whittaker (E. G. Gray and V. P. Whittaker (1962) J. Anat. 76, 79-88). For NA uptake, these vesicular particles were isolated from the hypothalamus of male rat brains.
The following characteristics were determined for the NA transporter: NA uptake: Km=0.32±0.11 μM (In each case N=4, i.e. means±SEM from 4 independent series of tests, which were performed as parallel tests in triplicate).
A detailed description of the method may be found in the literature (M. Ch. Frink, H.-H. Hennies, W. Englberger, M. Haurand and B. Wilffert (1996) Arzneim.-Forsch./Drug Res. 46 (III), 11, 1029-1036). The NA uptake inhibition of selected compounds was determined. The values were determined at a test concentration of 10^−5 M.

T1 sequence (Q9WTR4 1-597): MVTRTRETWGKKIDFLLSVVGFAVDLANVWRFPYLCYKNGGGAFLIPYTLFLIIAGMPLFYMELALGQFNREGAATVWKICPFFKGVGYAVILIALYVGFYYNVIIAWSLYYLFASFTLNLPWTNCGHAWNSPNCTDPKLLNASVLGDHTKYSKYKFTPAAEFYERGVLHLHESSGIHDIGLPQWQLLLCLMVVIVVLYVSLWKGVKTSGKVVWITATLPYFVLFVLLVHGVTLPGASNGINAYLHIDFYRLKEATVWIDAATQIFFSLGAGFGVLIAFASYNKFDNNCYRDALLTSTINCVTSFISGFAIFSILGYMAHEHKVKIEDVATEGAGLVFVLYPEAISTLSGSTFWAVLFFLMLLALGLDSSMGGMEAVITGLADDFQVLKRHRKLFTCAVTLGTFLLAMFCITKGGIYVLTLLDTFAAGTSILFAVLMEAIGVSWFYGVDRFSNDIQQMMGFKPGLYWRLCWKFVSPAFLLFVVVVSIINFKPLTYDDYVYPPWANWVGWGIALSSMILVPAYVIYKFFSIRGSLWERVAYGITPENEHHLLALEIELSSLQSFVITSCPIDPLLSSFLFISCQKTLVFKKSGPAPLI

Compared with `Cc1cccc(C2(O)CCCC2CN2CCCC2)c1` (stereo not shown) [2-Pyrrolidin-1-ylmethyl-1-m-tolyl-cyclopentanol], `Cc1cccc(C2(O)CCCC2CN2CCCCCC2)c1` (stereo not shown) [2-Azepan-1-ylmethyl-1-m-tolyl-cyclopentanol] is higher in inhibition at 10 µM: 52% for the first, 59% for the second.

Compared with `OC1(c2ccccc2)CCCCCC1CN1CCCC1` (stereo not shown) [1-Phenyl-2-pyrrolidin-1-ylmethyl-cycloheptanol], `OC1(c2ccccc2)CCCCCC1CN1CCCCCC1` (stereo not shown) [2-Azepan-1-ylmethyl-1-phenyl-cycloheptanol] is lower in inhibition at 10 µM: 56% for the first, 52% for the second.

First: Cc1cc(C2(O)CCCCC2CN2CCCCCC2)ccc1F (stereo not shown) [2-Azepan-1-ylmethyl-1-(4-fluoro-3-methyl-phenyl)-cyclohexanol]
Second: Cc1cc(C2(O)CCCCCC2CN2CCCCCC2)ccc1F (stereo not shown) [2-Azepan-1-ylmethyl-1-(4-fluoro-3-methyl-phenyl)-cycloheptanol]
The inhibition at 10 µM of the first is lower: 54% for the first, 63% for the second.

Compared with `Cc1ccc(C2(O)CCCCC2CN2CCCCCC2)cc1` (stereo not shown) [2-Azepan-1-ylmethyl-1-p-tolyl-cyclohexanol], `Cc1ccc(C2(O)CCCCCC2CN2CCCCCC2)cc1` (stereo not shown) [2-Azepan-1-ylmethyl-1-p-tolyl-cycloheptanol] is lower in inhibition at 10 µM: 64% for the first, 58% for the second.

First: OC1(CCCc2ccccc2)CCCC1CN1CCCC1 (stereo not shown) [1-(3-Phenyl-propyl)-2-pyrrolidin-1-ylmethyl-cyclopentanol]
Second: OC1(CCCc2ccccc2)CCCC1CN1CCCCCC1 (stereo not shown) [2-Azepan-1-ylmethyl-1-(3-phenyl-propyl)-cyclopentanol]
The inhibition at 10 µM of the first is higher: 65% for the first, 59% for the second.

First: Cc1ccc(C2(O)CCCC2CN2CCCC2)cc1 (stereo not shown) [2-Pyrrolidin-1-ylmethyl-1-p-tolyl-cyclopentanol]
Second: Cc1ccc(C2(O)CCCCC2CN2CCCC2)cc1 (stereo not shown) [2-Pyrrolidin-1-ylmethyl-1-p-tolyl-cyclohexanol]
The inhibition at 10 µM of the first is higher: 78% for the first, 59% for the second.

Going from `OC1(c2ccc(Cl)cc2)CCCC1CN1CCCC1` (stereo not shown) [1-(4-Chloro-phenyl)-2-pyrrolidin-1-ylmethyl-cyclopentanol] to `OC1(c2ccc(Cl)cc2)CCCC1CN1CCCCCC1` (stereo not shown) [2-Azepan-1-ylmethyl-1-(4-chloro-phenyl)-cyclopentanol], the inhibition at 10 µM rises from 75% to 80%.

Going from `Cc1cc(C2(O)CCCCCC2CN2CCCC2)ccc1F` (stereo not shown) [1-(4-Fluoro-3-methyl-phenyl)-2-pyrrolidin-1-ylmethyl-cycloheptanol] to `Cc1cc(C2(O)CCCC2CN2CCCCCC2)ccc1F` (stereo not shown) [2-Azepan-1-ylmethyl-1-(4-fluoro-3-methyl-phenyl)-cyclopentanol], the inhibition at 10 µM falls from 83% to 73%.

Compared with `Cc1ccc(C2(O)CCCCCC2CN2CCCC2)cc1` (stereo not shown) [2-Pyrrolidin-1-ylmethyl-1-p-tolyl-cycloheptanol], `Cc1ccc(C2(O)CCCC2CN2CCCCCC2)cc1` (stereo not shown) [2-Azepan-1-ylmethyl-1-p-tolyl-cyclopentanol] is lower in inhibition at 10 µM: 76% for the first, 70% for the second.

Going from `OC1(c2cccc(Cl)c2Cl)CCCCC1CN1CCCC1` (stereo not shown) [1-(2,3-Dichloro-phenyl)-2-pyrrolidin-1-ylmethyl-cyclohexanol] to `OC1(c2cccc(Cl)c2Cl)CCCCCC1CN1CCCC1` (stereo not shown) [1-(2,3-Dichloro-phenyl)-2-pyrrolidin-1-ylmethyl-cycloheptanol], the inhibition at 10 µM rises from 60% to 63%.

Going from `OC1(CCCc2ccccc2)CCCCC1CN1CCCCCC1` (stereo not shown) [2-Azepan-1-ylmethyl-1-(3-phenyl-propyl)-cyclohexanol] to `OC1(CCCc2ccccc2)CCCCCC1CN1CCCC1` (stereo not shown) [1-(3-Phenyl-propyl)-2-pyrrolidin-1-ylmethyl-cycloheptanol], the inhibition at 10 µM falls from 77% to 63%.

Going from `COc1ccc(C2(O)CCCCCC2CN2CCCC2)cc1` (stereo not shown) [1-(4-Methoxy-phenyl)-2-pyrrolidin-1-ylmethyl-cycloheptanol] to `COc1ccc(C2(O)CCCCC2CN2CCCCCC2)cc1` (stereo not shown) [2-Azepan-1-ylmethyl-1-(4-methoxy-phenyl)-cyclohexanol], the inhibition at 10 µM falls from 69% to 58%.

Going from `OC1(c2ccc(Cl)cc2Cl)CCCCCC1CN1CCCC1` (stereo not shown) [1-(2,4-Dichloro-phenyl)-2-pyrrolidin-1-ylmethyl-cycloheptanol] to `OC1(c2cccc(Cl)c2Cl)CCCC1CN1CCCC1` (stereo not shown) [1-(2,3-Dichloro-phenyl)-2-pyrrolidin-1-ylmethyl-cyclopentanol], the inhibition at 10 µM falls from 55% to 53%.

First: OC1(CCc2ccccc2)CCCCC1CN1CCCCCC1 (stereo not shown) [2-Azepan-1-ylmethyl-1-phenethyl-cyclohexanol]
Second: OC1(CCc2ccccc2)CCCCCC1CN1CCCCCC1 (stereo not shown) [2-Azepan-1-ylmethyl-1-phenethyl-cycloheptanol]
The inhibition at 10 µM of the first is lower: 70% for the first, 87% for the second.

First: OC1(c2ccc(F)cc2)CCCCCC1CN1CCCC1 (stereo not shown) [1-(4-Fluoro-phenyl)-2-pyrrolidin-1-ylmethyl-cycloheptanol]
Second: OC1(c2ccc(F)cc2)CCCCC1CN1CCCCCC1 (stereo not shown) [2-Azepan-1-ylmethyl-1-(4-fluoro-phenyl)-cyclohexanol]
The inhibition at 10 µM of the first is higher: 57% for the first, 52% for the second.

Going from `OC1(CCc2ccccc2)CCCC1CN1CCCC1` (stereo not shown) [1-Phenethyl-2-pyrrolidin-1-ylmethyl-cyclopentanol] to `OC1(CCc2ccccc2)CCCC1CN1CCCCCC1` (stereo not shown) [2-Azepan-1-ylmethyl-1-phenethyl-cyclopentanol], the inhibition at 10 µM rises from 59% to 92%.

Going from `CCC(O)(C#Cc1ccccc1)C(C)CN1CCCC1` (stereo not shown) [3-Ethyl-4-methyl-1-phenyl-5-pyrrolidin-1-yl-pent-1-yn-3-ol] to `OC1(Cc2ccccc2)CCCCCC1CN1CCCCCC1` (stereo not shown) [2-Azepan-1-ylmethyl-1-benzyl-cycloheptanol], the inhibition at 10 µM falls from 76% to 55%.

Compared with `Cc1cccc(C2(O)CCCCCC2CN2CCCC2)c1` (stereo not shown) [2-Pyrrolidin-1-ylmethyl-1-m-tolyl-cycloheptanol], `COc1ccc(C2(O)CCCC2CN2CCCCCC2)cc1` (stereo not shown) [2-Azepan-1-ylmethyl-1-(4-methoxy-phenyl)-cyclopentanol] is lower in inhibition at 10 µM: 67% for the first, 58% for the second.

Going from `COc1ccc(C2(O)CCCCCC2CN2CCCCCC2)cc1` (stereo not shown) [2-Azepan-1-ylmethyl-1-(4-methoxy-phenyl)-cycloheptanol] to `OC1(c2cccs2)CCCC1CN1CCCCCC1` (stereo not shown) [2-Azepan-1-ylmethyl-1-thiophen-2-yl-cyclopentanol], the inhibition at 10 µM falls from 58% to 51%.

First: Cc1cc(C2(O)CCCC2CN2CCCC2)ccc1F (stereo not shown) [1-(4-Fluoro-3-methyl-phenyl)-2-pyrrolidin-1-ylmethyl-cyclopentanol]
Second: OC1(CCc2ccccc2)CCCCCC1CN1CCCC1 (stereo not shown) [1-Phenethyl-2-pyrrolidin-1-ylmethyl-cycloheptanol]
The inhibition at 10 µM of the first is lower: 59% for the first, 82% for the second.

Going from `OC1(c2ccc(Cl)cc2)CCCC1CN1CCCC1` (stereo not shown) [1-(4-Chloro-phenyl)-2-pyrrolidin-1-ylmethyl-cyclopentanol] to `OC1(C#Cc2ccccc2)CCCC1CN1CCCC1` (stereo not shown) [1-Phenylethynyl-2-pyrrolidin-1-ylmethyl-cyclopentanol], the “NA Uptake (% inhibition)” value rises from 68% to 92%.

For `OC1(C#Cc2ccccc2)CCCC1CN1CCCCCC1` (stereo not shown) [2-Azepan-1-ylmethyl-1-phenylethynyl-cyclopentanol], the “NA Uptake (% inhibition)” value was 99%.
